What was measured:
[1] = tested on: Retinal VEGF mRNA; assay: Retinal VEGF mRNA of diabetic rats, semi-quantitative RT-PCR; format: in vivo, rat; conditions: STZ-diabetic SHRSP rats
Procedure: • Compound 1: (±)-1-(cyclohexyloxycarbonyloxy) ethyl-2-ethoxy-1-[[2′-(1H-tetrazol-5-yl)biphenyl-4-yl]methyl]-1H-benzimidazole-7-carboxylate (Compound 1) Method: Streptozotocin (STZ) was intravenously injected at a dose of 30 mg/kg to 10-week old male rats (Stroke-Prone Spontaneously Hypertensive Rat:SHRSP). When 9 weeks had passed since the injection of STZ, the blood sugar values of the rats were measured. The rats were divided into 3 groups, that is, a group before the administration, a solvent-administered control group and an administered group with the compound 1 (3 mg/kg/day, p.o.). Four weeks after, the blood sugar values and the retinal potentials were measured, and then, the rats were killed by bleeding by discission of the aorta abdominalis under deep ether anesthetization so as to remove the eyeball. A suspension of the compound 1 in a 0.5% methylcellulose-containing physiological saline was orally administered to the rats once a day for 4 weeks. […]
VEGF mRNA in the retina was quantitatively determined as follows. […] The quantity of VEGF mRNA was measured from the extracted RNA by the semi-quantitative RT-PCR process (ABI PRISM 7700: Perkin Elmer) using two kinds of fluorescent probes (FAM: VEGF, and VIC: β-action). The quantity of VEGF mRNA was corrected by the quantity of β-action mRNA and calculated provided that the quantity of VEGF mRNA of SD rat retina was defined as 1.

[2] = tested on: Diabetic Rats; assay: Retinal potential: latency of oscillatory potential peaks of diabetic rats; format: in vivo, rat; conditions: STZ-diabetic SHRSP rats
Procedure: • Compound 1: (±)-1-(cyclohexyloxycarbonyloxy) ethyl-2-ethoxy-1-[[2′-(1H-tetrazol-5-yl)biphenyl-4-yl]methyl]-1H-benzimidazole-7-carboxylate (Compound 1) Method: Streptozotocin (STZ) was intravenously injected at a dose of 30 mg/kg to 10-week old male rats (Stroke-Prone Spontaneously Hypertensive Rat:SHRSP). When 9 weeks had passed since the injection of STZ, the blood sugar values of the rats were measured. The rats were divided into 3 groups, that is, a group before the administration, a solvent-administered control group and an administered group with the compound 1 (3 mg/kg/day, p.o.). Four weeks after, the blood sugar values and the retinal potentials were measured, and then, the rats were killed by bleeding by discission of the aorta abdominalis under deep ether anesthetization so as to remove the eyeball. A suspension of the compound 1 in a 0.5% methylcellulose-containing physiological saline was orally administered to the rats once a day for 4 weeks. On the other hand, 23-week old SHRSP rats were used as an untreated group.
The retinal potential was measured by the following method. The subject animal was subjected to dark adaptation in a dark room for 90 to 120 minutes, and then, anesthetized with ketamine hydrochloride (50 mg/kg, i.m.) and immobilized with xylazine (2 mg/kg, i.m.). The limb and the head of the subject animal were fixed with a string. Mydriatic was dropped on the left eyeball to widen the pupil, and a contact lens type electrode was placed on the cornea using a contact lens-wearing auxiliary. A xenon lamp (1.2 joules) was set at a position 10 cm distant in the forward direction from the eye to be tested (the left eye), and light stimuli were controlled by a light stimulator (SLS-3100 manufactured by Nippon Koden K.K.). The retinal potential generated by light stimuli (0.5 Hz, 16 times) was amplified by a Neuropack (MEB-5100 manufactured by Nippon Koden K.K., Low cut 0.5 Hz, and sweeping time: 200 msec). The results were added and averaged. The latency of oscillatory potential peaks (O1, O2 and O3) was counted from the resultant waveforms.

[3] = 3 mg/kg/day p.o. for 4 weeks, n = 4, average ± standard deviation

CCOc1nc2cccc(C(=O)OC(C)OC(=O)OC3CCCCC3)c2n1Cc1ccc(-c2ccccc2-c2nnn[nH]2)cc1 (racemic) [Compound 1, (±)-1-(cyclohexyloxycarbonyloxy) ethyl-2-ethoxy-1-[[2′-(1H-tetrazol-5-yl)biphenyl-4-yl]methyl]-1H-benzimidazole-7-carboxylate]
Retinal VEGF mRNA (VEGF mRNA of SD rat determined as 1) ([1]; 3 mg/kg/day p.o. for 4 weeks, n = 4, corrected by β-action mRNA, average ± standard deviation): 0.99 ± 0.14
Quantity of VEGF mRNA in the retinal tissue, in words ([1]; 3 mg/kg/day p.o., 4 weeks): significantly decreased
Latency of oscillatory potential peak O1 [2, 3]: 23.81 ± 0.42 ms
Latency of oscillatory potential peak O2 [2, 3]: 32.88 ± 1.17 ms
Latency of oscillatory potential peak O3 [2, 3]: 43.39 ± 1.86 ms
Latency of oscillatory potential peaks O1, O2 and O3, in words ([2]; 3 mg/kg/day p.o., 4 weeks): latency was reduced in any of the O1, O2 and O3
Latency of oscillatory potential peak O1 compared with the control group, in words ([2]; 3 mg/kg/day p.o., 4 weeks, Dunnett's t Test): significant improvement

Reference: patent US7064141B1, “Method for preventing, treating or inhibiting development of simple retinopathy and preproliferative retinopathy” (Takeda Pharmaceutical Company Limited, priority 1999, dated 2006)
